Experimental data reported in patent US20230135635A1, “INHIBITORS OF ULK1/2 AND METHODS OF USING SAME” (SALK INSTITUTE FOR BIOLOGICAL STUDIES, priority 2020, published 2023).

target: T1, recombinant human ULK1 protein (1-649) (Homo sapiens, UniProt O75385); test: ULK1 inhibition assay (ADP Glo); format: biochemical; details: Table 2
T1 construct: recombinant human ULK1 protein (1-649, SignalChem #U01-11G); purchased SignalChem U01-11G
T1 sequence (O75385 1-649): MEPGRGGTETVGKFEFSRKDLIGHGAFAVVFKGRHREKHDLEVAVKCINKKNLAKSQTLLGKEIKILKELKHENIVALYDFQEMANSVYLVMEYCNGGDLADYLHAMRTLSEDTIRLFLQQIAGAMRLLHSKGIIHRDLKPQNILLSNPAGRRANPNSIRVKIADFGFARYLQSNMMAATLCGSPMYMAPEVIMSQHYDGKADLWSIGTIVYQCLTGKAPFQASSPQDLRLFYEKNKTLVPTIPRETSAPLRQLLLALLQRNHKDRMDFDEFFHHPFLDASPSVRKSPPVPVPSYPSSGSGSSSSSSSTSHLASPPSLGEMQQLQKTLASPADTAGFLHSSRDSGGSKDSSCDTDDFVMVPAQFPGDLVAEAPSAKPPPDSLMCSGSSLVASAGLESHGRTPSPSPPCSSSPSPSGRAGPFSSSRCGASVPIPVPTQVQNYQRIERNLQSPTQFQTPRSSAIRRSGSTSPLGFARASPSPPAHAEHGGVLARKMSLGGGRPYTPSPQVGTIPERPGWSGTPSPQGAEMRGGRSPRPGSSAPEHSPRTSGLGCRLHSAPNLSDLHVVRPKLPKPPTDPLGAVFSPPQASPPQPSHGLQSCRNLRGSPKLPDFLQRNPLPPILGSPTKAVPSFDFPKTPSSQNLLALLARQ
In short: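 Recombinant ULK1 (2 ug/mL) phosphorylated myelin basic protein (80 ug/mL) at 25 uM ATP; ADP formed was detected by ADP-Glo after 1 h. Compounds ran in triplicate, 16-dose 3-fold serial dilution from 30 uM, to give IC50.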

Row | IC50 [nM] | Compound
1 | > 1000 | COC(=O)c1ccccc1Oc1nc(Nc2ccc(OC(F)(F)F)cc2)ncc1Br [Compound B13]
2 | > 1000 | COC(=O)c1ccccc1Oc1nc(Nc2ccc3c(c2)OCCO3)ncc1Br [Compound B14]
3 | < 100 | COc1cc(Nc2ncc(Br)c(Oc3ccccc3C(=O)N(C)O)n2)cc(OC)c1OC [Compound B15]
4 | > 1000 | COC(=O)c1ccccc1Oc1nc(Nc2cc(C)c(C)c(C)c2)ncc1Br [Compound B16]
5 | > 1000 | COC(=O)c1ccccc1Oc1nc(Nc2ccc(OC)c(OC)c2)ncc1Br [Compound B17]
6 | > 1000 | COC(=O)c1ccccc1Oc1nc(Nc2cnc3[nH]ccc3c2)ncc1Br [Compound B18]
7 | > 1000 | COC(=O)c1ccccc1Oc1nc(Nc2ccc(OC)cc2)ncc1Br [Compound B19]
8 | > 1000 | COC(=O)c1ccccc1Oc1nc(Nc2ccc3c(c2)OCO3)ncc1Br [Compound B20]
9 | > 1000 | COC(=O)c1ccccc1Oc1nc(Nc2cccc(C(N)=O)c2)ncc1Br [Compound B21]
10 | > 1000 | COC(=O)c1ccccc1Oc1nc(Nc2ccc3[nH]cnc3c2)ncc1Br [Compound B22]
11 | > 1000 | COC(=O)c1ccccc1Oc1nc(Nc2cccc(OC)c2)ncc1Br [Compound B23]
12 | 100 to 1000 | COC(=O)c1ccccc1Oc1nc(Nc2ccc(N(C)C)cc2)ncc1Br [Compound B24]
13 | > 1000 | COC(=O)c1ccccc1Oc1nc(Nc2ccc(OC(F)F)cc2)ncc1Br [Compound B25]
14 | 100 to 1000 | COC(=O)c1ccccc1Oc1nc(Nc2ccc3[nH]ncc3c2)ncc1Br [Compound B26]
15 | > 1000 | COC(=O)c1ccccc1Oc1nc(Nc2ccc(N3CCCC3)cc2)ncc1Br [Compound B27]
16 | > 1000 | COC(=O)c1ccccc1Oc1nc(Nc2cccc(C(F)(F)F)c2)ncc1Br [Compound B28]
17 | > 1000 | COC(=O)c1ccccc1Oc1nc(Nc2cccc(OC(F)F)c2)ncc1Br [Compound B29]
18 | > 1000 | COC(=O)c1ccccc1Oc1nc(Nc2ccc3c(c2)CCO3)ncc1Br [Compound B30]
19 | > 1000 | COC(=O)c1ccccc1Oc1nc(Nc2ccc3[nH]ccc3c2)ncc1Br [Compound B31]
20 | > 1000 | COC(=O)c1ccccc1Oc1nc(Nc2ccc(SC)cc2)ncc1Br [Compound B32]
21 | > 1000 | COC(=O)c1ccccc1Oc1nc(Nc2ccc3c(c2)COC3)ncc1Br [Compound B33]

Row | IC50 [nM] | Compound
22 | > 1000 | COC(=O)c1ccccc1Oc1nc(Nc2cc(F)c(OC)c(F)c2)ncc1Br [Compound B34]
23 | > 1000 | COC(=O)c1ccccc1Oc1nc(Nc2ccc3occc3c2)ncc1Br [Compound B35]
24 | > 1000 | COC(=O)c1ccccc1Oc1nc(Nc2ccc(O)cc2)ncc1Br [Compound B36]
25 | 100 to 1000 | COC(=O)c1ccccc1Oc1nc(Nc2ccc(N)cc2)ncc1Br [Compound B37]
26 | > 1000 | COC(=O)c1ccccc1Oc1nc(Nc2ccc(CO)cc2)ncc1Br [Compound B38]
27 | > 1000 | COC(=O)c1ccccc1Oc1nc(Nc2ccc(OC)nc2)ncc1Br [Compound B39]
28 | > 1000 | COC(=O)c1ccccc1Oc1nc(Nc2cccc(OC(F)(F)F)c2)ncc1Br [Compound B40]
29 | > 1000 | COC(=O)c1ccccc1Oc1nc(Nc2ccc(C(N)=O)cc2)ncc1Br [Compound B41]
30 | > 1000 | COC(=O)c1ccccc1Oc1nc(Nc2ccc(C(F)(F)F)cc2)ncc1Br [Compound B42]
31 | > 1000 | COC(=O)c1ccc(Nc2ncc(Br)c(Oc3ccccc3C(=O)OC)n2)cc1 [Compound B43]
32 | > 1000 | COc1cc(Nc2ncc(Br)c(Oc3ccccc3C(=O)N3CCN(C)CC3)n2)cc(OC)c1OC [Compound B44]
33 | 100 to 1000 | COc1cc(Nc2ncc(Br)c(Oc3ccccc3C(=O)N(C)CC#N)n2)cc(OC)c1OC [Compound B45]
34 | > 1000 | COC(=O)c1ccccc1Oc1nc(Nc2ccc(O)c(O)c2)ncc1Br [Compound B46]
35 | > 1000 | COC(=O)c1ccccc1Oc1nc(Nc2ccc(N3CCNCC3)cc2)ncc1Br [Compound B47]
36 | > 1000 | COC(=O)c1ccccc1Oc1ncnc(Nc2cc(OC)c(OC)c(OC)c2)n1 [Compound B48]
37 | > 1000 | COc1cc(Nc2ncc(Br)c(Oc3ccccc3C(=O)N(C)CC(C)(C)O)n2)cc(OC)c1OC [Compound B49]
38 | > 1000 | COc1cc(Nc2ncc(Br)c(Oc3ccccc3C(=O)N3CCC3)n2)cc(OC)c1OC [Compound B50]
39 | > 1000 | CNC(=O)c1ccccc1Oc1nc(Nc2ccc3c(c2)OCCO3)ncc1C(F)(F)F [Compound B51, 2-((2-((2,3-Dihydrobenzo[b][1,4]dioxin-6-yl)amino)-5-(trifluoromethyl)pyrimidin-4-yl)oxy)-N-methylbenzamide]
40 | > 1000 | CNC(=O)c1ccccc1Oc1nc(Nc2ccc3c(c2)OCO3)ncc1C(F)(F)F [Compound B52, 2-((2-(Benzo[d][1,3]dioxol-5-ylamino)-5-(trifluoromethyl)pyrimidin-4-yl)oxy)-N-methyl benzamide]
41 | > 1000 | Oc1nc(Nc2ccc3c(c2)OCO3)ncc1C(F)(F)F [Compound B53, 2-(Benzo[d][1,3]dioxol-5-ylamino)-5-(trifluoromethyl)pyrimidin-4-ol]

same assay, conditions: Table 3

Row | IC50 [nM] | Compound
42 | > 100 | COc1cc(Nc2ncc(Br)c(Oc3ccccc3CO)n2)cc(OC)c1OC [Compound C1]
43 | < 5 | COCc1ccccc1Nc1nc(Nc2cc(OC)c(OC)c(OC)c2)ncc1Br [Compound C2]
44 | < 5 | COc1cc(Nc2ncc(C(F)(F)F)c(Nc3ccccc3CO)n2)cc(OC)c1OC [Compound C3]
45 | > 100 | OCc1ccccc1Nc1nc(Nc2ccccc2)ncc1Br [Compound C4]
46 | 5 to 100 | COc1ccc(Nc2ncc(Br)c(Nc3ccccc3CO)n2)cc1 [Compound C5]
47 | < 5 | COc1cccc(Nc2ncc(Br)c(Nc3ccccc3CO)n2)c1 [Compound C6]
48 | 5 to 100 | CC(=O)Nc1ccc(Nc2ncc(Br)c(Nc3ccccc3CO)n2)cc1 [Compound C7]
49 | 5 to 100 | OCc1ccccc1Nc1nc(Nc2ccc(OC(F)F)cc2)ncc1Br [Compound C8]
50 | < 5 | CN1CCN(c2ccc(Nc3ncc(Br)c(Nc4ccccc4CO)n3)cc2)CC1 [Compound C9]
51 | > 100 | COc1cc(Oc2ncc(Br)c(Nc3ccccc3CO)n2)cc(OC)c1OC [Compound C10]
52 | < 5 | CN(C)c1ccc(Nc2ncc(Br)c(Nc3ccccc3CO)n2)cc1 [Compound C11]
53 | < 5 | O=C(Nc1ccc(Nc2ncc(Br)c(Nc3ccccc3CO)n2)cc1)C1CC1 [Compound C12]
54 | > 100 | COc1cc(Nc2nccc(Nc3ccccc3CN)n2)cc(OC)c1OC [Compound C13]
55 | 5 to 100 | NC(=O)c1ccc(Nc2ncc(Br)c(Nc3ccccc3CO)n2)cc1 [Compound C14]
56 | > 100 | NCCCNc1ncc(Br)c(Nc2ccccc2CO)n1 [Compound C15]
57 | < 5 | OCCN(CCO)c1ccc(Nc2ncc(Br)c(Nc3ccccc3CO)n2)cc1 [Compound C16]
58 | 5 to 100 | COc1cc(Nc2ncc(Br)c(Nc3ccccc3COC(C)=O)n2)cc(OC)c1OC [Compound C17]
59 | 5 to 100 | COc1cc(Nc2ncc(Br)c(Nc3ccccc3CN(C)C)n2)cc(OC)c1OC [Compound C18]
60 | > 100 | COc1cc(Nc2ncc(Br)c(Nc3ccccc3COCC(=O)N(C)C)n2)cc(OC)c1OC [Compound C19]
61 | > 100 | COc1cc(Nc2ncc(Br)c(Nc3ccccc3CN3CCN(C)CC3)n2)cc(OC)c1OC [Compound C20]
62 | > 100 | COc1cc(Nc2ncc(Br)c(Nc3ccccc3COC(=O)N3CCOCC3)n2)cc(OC)c1OC [Compound C21]
63 | > 100 | COc1cc(Nc2ncc(Br)c(Nc3ccccc3CN3CCN(S(C)(=O)=O)CC3)n2)cc(OC)c1OC [Compound C22]
64 | > 100 | COc1cc(Nc2ncc(Br)c(Nc3ccccc3CN(C)CCO)n2)cc(OC)c1OC [Compound C23]
65 | > 100 | COc1cc(Nc2ncc(Br)c(Nc3ccccc3CNC3CC3)n2)cc(OC)c1OC [Compound C24]
66 | 5 to 100 | COc1cc(Nc2ncc(Br)c(Nc3ccccc3CNCC(N)=O)n2)cc(OC)c1OC [Compound C25]
67 | 5 to 100 | COc1cc(Nc2ncc(Br)c(Nc3ccccc3CN(C)CC#N)n2)cc(OC)c1OC [Compound C26]
68 | 5 to 100 | COc1cc(Nc2ncc(Br)c(Nc3ccccc3CN(CCO)CCO)n2)cc(OC)c1OC [Compound C27]
69 | > 100 | COc1cc(Nc2ncc(Br)c(Oc3ccc(NC(=O)C4(C(=O)Nc5ccc(F)cc5)CC4)cc3F)n2)cc(OC)c1OC [Compound C28, N-(4-((5-Bromo-2-((3,4,5-trimethoxyphenyl)amino)pyrimidin-4-yl)oxy)-3-fluorophenyl)-N-(4-fluorophenyl)cyclopropane-1,1-dicarboxamide]
70 | > 100 | COc1cc(Nc2ncc(Br)c(Oc3ccc(NC(=O)CC(=O)Nc4ccc(F)cc4)cc3F)n2)cc(OC)c1OC [Compound C29, N^1-(4-((5-Bromo-2-((3,4,5-trimethoxyphenyl)amino)pyrimidin-4-yl)oxy)-3-fluorophenyl)-N^3-(4-fluorophenyl)malonamide]
